Experimental data reported in ChEMBL document CHEMBL1135239, “Imidazo[5,1-f]triazin-4(3H)-ones, a new class of potent PDE 5 inhibitors” (Bioorg Med Chem Lett, 2002).

Key:
Phosphodiesterase 1 = Phosphodiesterase 1 (Bos taurus, UniProt Q01061+P14100); experiment: Inhibition of Phosphodiesterase 1; type: protein assay
Phosphodiesterase 3 = Phosphodiesterase 3 (Homo sapiens, UniProt Q14432+Q13370); experiment: Inhibition of Phosphodiesterase 3; type: protein assay
Phosphodiesterase 4 = Phosphodiesterase 4 (Homo sapiens, UniProt P27815+Q08499+Q07343+Q08493); experiment: Inhibition of Phosphodiesterase 4; type: protein assay
[1] = target: cGMP-specific 3',5'-cyclic phosphodiesterase (Homo sapiens, UniProt O76074)
Oryctolagus cuniculus = experiment: In vivo minimal effective dose for inhibition of phosphodiesterase in conscious rabbit model by peroral administration; type: functional; settings: po, read-out: MED

Compound	IC50 (Phosphodiesterase 1)	IC50 (Phosphodiesterase 3)	IC50 (Phosphodiesterase 4)	IC50 [1]	minimal effective dose (Oryctolagus cuniculus)
CCCc1nc(C)c2c(=O)[nH]c(-c3cc(S(=O)(=O)N4CCN(C)CC4)ccc3OCC)nn12	300 nM	> 500 nM			
CCCOc1ccc(S(=O)(=O)N2CCN(C)CC2)cc1-c1nc2c(ncn2CCC)c(=O)[nH]1		> 500 nM	> 500 nM		
CCCc1nc(C)c2c(=O)[nH]c(-c3ccccc3OCC)nn12	300 nM	> 500 nM	> 500 nM	5 nM	
CCCOc1ccccc1-c1nc2c(ncn2CCC)c(=O)[nH]1		> 500 nM	> 500 nM	10 nM	
CCCc1nn(C)c2c(=O)[nH]c(-c3ccccc3OCC)nc12		> 500 nM	> 500 nM	40 nM	
CCCc1nc(C)c2c(O)nc(-c3cc(S(=O)(=O)N4CCN(CC)CC4)ccc3OCC)nn12.Cl [VARDENAFIL HYDROCHLORIDE]	180 nM				3 mg/kg
